According to patent publication US20230414607A1, “METHODS OF TREATMENT” (BOW RIVER LLC, priority 2017, published 2023):
Like-named read-outs stand apart in the source and are kept apart here.

What was measured:
[1] = Pooled posaconazole steady-state concentration and elimination half-life, clinical studies BOW-001 and BOW-002; type: in vivo, human; conditions: for half-life: human, in vivo
Text: The two clinical studies used the same protocol to measure posaconazole's elimination half-life, allowing for the data for normal patients from each study to be combined (“All Normal”) and data for obese patients from each study to be combined (“All Obese”).

[2] = Noxafil label, cited from earlier work
[3] = Example 3: posaconazole posttreatment washout; type: in vivo; conditions: human, plasma, oral, 300 mg
[4] = Plasma posaconazole concentrations and washout half-life in normal-weight and obese subjects; type: in vivo, human; conditions: for Trough (predose) steady-state posaconazole concentration: Day 15, posaconazole 300 mg delayed-release tablet daily; for half-life: human, plasma, oral, from day 15, read-out: Postdosage washout half-life of posaconazole (converted)
Procedure: On study day 2, subjects received posaconazole (300 mg delayed-release tablet twice a day), and on the mornings of days 3-15, subjects received posaconazole (300 mg delayed-release tablet daily). Because posaconazole is to be taken with food,^6 subjects were fed a continental breakfast in the clinical research unit after receiving posaconazole and before discharge from the unit. […] One additional blood sample was taken 5 hours after the posaconazole dose on day 15 for approximate determination of maximum plasma posaconazole concentrations. Samples were centrifuged, and the plasma was separated and frozen at −70° C. until the time of assay of plasma posaconazole concentrations.
Analytic Methods. All bioassay analysis was performed by Keystone Bioanalytical (North Wales, PA). For analysis of posaconazole, the internal standard (posaconazole-d4) was added to the biological samples. Plasma samples were precipitated using formic acid in acetonitrile and isolated using a Phree phospholipid removal tube, and then an aliquot of the sample was injected onto a high-pressure liquid chromatography with tandem mass spectrometry triple quadrupole mass spectrometer (Sciex API-5500). The analytical column was a Unison CK-218, 3 μm particle size HPLC column (50×2 mm) from Imtakt USA (Portland, OR). The mobile phase consisted of an aqueous component (0.25% formic acid and 10 mmol/L ammonium formate in water) and an organic component (0.1% formic acid in acetonitrile) and was delivered by gradient, with the organic component going from 35% to 100%. The m/z transitions monitored were 701.6→614.4 for posaconazole and 705.6→618.4 for the internal standard. The calibration curve ranged from 1 to 1000 ng/mL (8 concentrations in duplicate). The interassay precision of this method (as percentage coefficient of variance) was 4.28% to 7.14%, and the interassay accuracy (as percentage relative error) was […] to 3.12%.
For each subject, the predose plasma posaconazole concentration on study day 15 was used as a steady-state concentration. The apparent washout half-life of posaconazole was calculated by log-linear regression analysis starting with the plasma concentration on day 15 and ending with the last nonzero value. Differences between normal-weight and obese cohorts were evaluated by Student t-test for independent groups.

[5] = Example 2: posaconazole pharmacokinetics in normal-weight and obese subjects; type: in vivo, human; conditions: for Steady-state concentration, Mean ± SD: posaconazole 300 mg once daily; for half-life: human, plasma, oral
Procedure: On study Day 4, subjects received two doses of posaconazole (300 mg BID). On the mornings of Days 5-17, they received posaconazole 300 mg once daily. As posaconazole is to be taken with food, subjects were fed a continental breakfast in the clinical research unit after receiving posaconazole and prior to discharge from the unit. Venous blood samples were drawn into EDTA containing tubes prior to the posaconazole dose on Days 4, 7, 11, and prior to the lurasidone dose on Days 14, 20, 23, 26 and 30. An additional blood sample was taken 5 hours after posaconazole dosage on Day 17, for approximate determination of maximum posaconazole plasma concentrations, and on Day 33. Samples were centrifuged and the plasma was separated and frozen at −70° C. until the time of assay.
Analytic Methods. All bioassay analyses were performed by Keystone Bioanalytical, North Wales, PA. For analysis of posaconazole, the internal standard (posaconazole-D4) was added to the biological samples. Plasma samples were precipitated using formic acid in acetonitrile and isolated using a Phree phospholipid removal tube. An aliquot of the sample was injected onto a high-pressure liquid chromatograph with tandem mass spectrometry triple quadrupole mass spectrometer (SCIEX API-5500). The analytical column was a Unison CK-218, 3 μm particle size HPLC column (50×2 mm) from Imtakt USA (Portland, OR). The mobile phase consisted of an aqueous component (0.25% formic acid and 10 mM ammonium formate in water) and an organic component (0.1% formic acid in acetonitrile) and was delivered by gradient, with the organic component going from 35% to 100%. The m/z transitions monitored were 701.6>614.4 for posaconazole and 705.6>618.4 for the internal standard. The calibration curve ranged from 1-1000 ng/mL (8 concentrations in duplicate).
Pharmacokinetic and Statistical Methods. […] The apparent washout half-life of posaconazole was calculated by log-linear regression analysis starting with the plasma concentration on Day 20 and ending with the last non-zero value. Differences between normal-weight and obese cohorts were evaluated by Student's t-test for independent groups. The relation between measures of body habitus and posaconazole washout half-life for individual subjects was evaluated by linear regression analysis.

CYP3A4 = CYP3A4 (Homo sapiens, UniProt P08684); conditions: human
Text: Blood plasma levels may be described in various ways, such as area under the plasma concentration curve (AUC) and peak plasma concentration (Cmax). Baseline levels and posaconazole interaction levels for CYP3A4 substrate drugs may be compared using the geometric mean ratio (GMR) of AUC and Cmax. […] GMR is the standard industry and regulatory method for assessing the ratio of change of a pharmacokinetic variable (such as AUC) relative to its own baseline value (e.g., in a patient that was not treated with posaconazole). Once the level of substrate drug (AUC or Cmax) during co-administration with posaconazole and a CYP3A4 substrate drug is known, a function can be derived using conventional pharmacological methods to estimate how the AUC or plasma level of the CYP3A4 substrate drug is expected to decay over time after stopping administration of posaconazole. Such a function can be used to provide a plot of the decay GMR of AUC (or Cmax) of the CYP3A4 substrate drug versus time due to its interaction with posaconazole, based on the stated half-life of posaconazole.
The expected DDI decay curve can also be calculated for Cmax GMR by substituting Cmax during co-administration for AUC during co-administration in equation 1. As used herein, “expected levels” and “predicted levels” and the like, refer to the AUC or Cmax GMR values calculated using equation 1.

Chain of CYP3A4 (P08684 whole entry): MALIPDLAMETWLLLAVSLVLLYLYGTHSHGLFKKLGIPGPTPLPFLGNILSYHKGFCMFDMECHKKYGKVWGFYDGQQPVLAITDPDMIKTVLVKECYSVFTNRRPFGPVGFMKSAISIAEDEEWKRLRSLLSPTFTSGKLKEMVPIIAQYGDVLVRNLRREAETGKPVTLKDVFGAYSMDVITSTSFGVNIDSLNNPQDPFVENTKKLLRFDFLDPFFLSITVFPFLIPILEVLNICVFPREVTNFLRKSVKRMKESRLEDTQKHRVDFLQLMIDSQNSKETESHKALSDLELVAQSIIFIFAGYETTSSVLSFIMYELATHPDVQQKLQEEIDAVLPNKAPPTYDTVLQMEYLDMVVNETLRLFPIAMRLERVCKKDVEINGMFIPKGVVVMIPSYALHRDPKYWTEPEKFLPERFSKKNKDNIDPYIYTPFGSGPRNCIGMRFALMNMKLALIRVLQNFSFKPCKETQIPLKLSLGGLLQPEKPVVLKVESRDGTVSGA

SMILES: CC[C@@H]([C@H](C)O)n1ncn(-c2ccc(N3CCN(c4ccc(OC[C@@H]5CO[C@@](Cn6cncn6)(c6ccc(F)cc6F)C5)cc4)CC3)cc2)c1=O [posaconazole]
- Css, Mean ([1]; All Normal (pooled)): 2864 ng/mL
- Css, Mean ([1]; All Obese (pooled)): 1860 ng/mL
- Css, Mean ([1]; BOW-001 Normal): 3071 ng/mL
- Css, Mean ([1]; BOW-001 Obese): 2258 ng/mL
- Css, Mean ([1]; BOW-002 Normal): 2514 ng/mL
- Css, Mean ([1]; BOW-002 Obese): 1462 ng/mL
- half-life ([1]; All Normal (pooled), normal weight patients, read-out: t1/2, Mean (elimination half-life) (converted)): 33.6 h
- half-life ([1]; All Obese (pooled), obese patients, read-out: t1/2, Mean (elimination half-life) (converted)): 58.3 h
- half-life ([1]; BOW-001 Normal, read-out: t1/2, Mean (converted)): 35.7 h
- half-life ([1]; BOW-001 Obese, read-out: t1/2, Mean (converted)): 64.5 h
- half-life ([1]; BOW-002 Normal, read-out: t1/2, Mean (converted)): 30.9 h
- half-life ([1]; BOW-002 Obese, read-out: t1/2, Mean (converted)): 52.5 h
- posaconazole half-life ([2]; after administration of posaconazole oral suspension): 31 to 37 h
- posaconazole half-life ([2]; after dosing with posaconazole injection): about 24 hours
- posaconazole half-life ([2]; patients with mild hepatic impairment): 39 h
- posaconazole half-life ([2]; patients with moderate hepatic impairment): 27 h
- posaconazole half-life ([2]; patients with normal hepatic function): 27 h
- posaconazole half-life ([2]; patients with severe hepatic impairment): 43 h
- half-life ([3]; normals): 36 h
- half-life ([3]; obese subjects): 64 h
- Trough (predose) steady-state posaconazole concentration ([4]; normal-weight subjects): 3071 ± 1422 ng/mL
- Trough (predose) steady-state posaconazole concentration ([4]; obese subjects): 2258 ± 952 ng/mL
- half-life ([4]; normal-weight subjects): 35.8 h
- half-life ([4]; obese subjects): 64.3 h
- Time posaconazole plasma concentrations persisted after stopping treatment ([4]; most subjects): at least 2 weeks
- Steady-state concentration, Mean ± SD ([5]; Normal): 2377 ± 1188 ng/mL
- Steady-state concentration, Mean ± SD ([5]; Obese): 1462 ± 649 ng/mL
- half-life ([5]; Normal, read-out: Washout half-life, Mean ± SD (converted)): 31 h
- half-life ([5]; Obese, read-out: Washout half-life, Mean ± SD (converted)): 53 h
- half-life ([5]; controls (normal-weight), read-out: Mean washout half-life (converted)): 30.7 h
- half-life ([5]; obese group, read-out: Mean washout half-life (converted)): 52.6 h
- half-life ([5]; two obese subjects, read-out: very long half-life values (converted)): 121 h
- Kel=ln(2)/(31 hours/24 hours) (CYP3A4): about 0.5366
